Test results from patent publication US10781224B2, “Bis(oxymethyl)phosphinic acid and biogenic metal salts thereof as regulators of plant growth and development” (priority 2016, dated 2020).

Experiments:
rice (Diamant variety) [1] = assay: Rice seed treatment with BHMPA salts: germination energy and germination rate; format: in vivo; details: for Germination energy / Germination rate: rice
Summary of the method: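 Corn, winter wheat and rice seeds (50 per dish, on filter paper) were soaked for 1 h in BHMPA or its metal salts at 1·10^−6-1·10^−12%, with water as control. Germination energy was read on day 4 and germination rate on day 8 for wheat and day 7 for rice and corn, following GOST 12038-84, as the mean of four replicates.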

rice (Diamant variety) [2] = assay: Rice seed treatment with BHMPA salts: germinating power; format: in vivo; details: for Length, root / Length, root, + % to control / Length, sprout / Length, sprout, + % to control / Mass, dry, root / Mass, dry, root, + % to control / Mass, dry, sprout / Mass, dry, sprout, + % to control / Mass, wet, root / Mass, wet, root, + % to control / Mass, wet, sprout / Mass, wet, sprout, + % to control: rice seed treatment
Summary of the method: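 Seeds (50 per Petri dish on two layers of filter paper) soaked 1 h in BHMPA or its Ca, Mg, Na, Co, Mn, Cu or Zn salts at 1·10^−6-1·10^−12%, with water controls. Germination energy read on day 4, germination on day 8 (wheat) or day 7 (rice, corn), as % means of four replicates. Germinating power taken as root and sprout length plus wet and dry mass per 100 seedlings.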

[3] = rice seed treatment, solution 1 · 10^−10%
[4] = comparative study vs Melaphen, 1·10^−8% solution
[5] = comparison with Melaphen (Table XXXIII), solution 1 · 10^−10%
[6] = experimental solution 1 · 10^−6%
[7] = experimental solution 1 · 10^−7%
[8] = experimental solution 1 · 10^−8%
[9] = experimental solution 1 · 10^−9%
[10] = experimental solution 1 · 10^−10%
[11] = experimental solution 1 · 10^−11%
[12] = experimental solution 1 · 10^−12%
[13] = rice, vs control, 1·10^−10% solution

With Copper BHMPA Salt [Cu-salt] the “Germination energy, %” value (rice (Diamant variety) [1]; [3]) was 88.0%, the “Germination rate, %” value (rice (Diamant variety) [1]; [3]) was 96.0% and the Germination energy (rice (Diamant variety) [1]; 1·10^−6% solution) was 81.7%. For the same substance, the Germination rate (rice (Diamant variety) [1]; 1·10^−6% solution) was 88.3%, the Germination energy (rice (Diamant variety) [1]; 1·10^−7% solution) was 84.3% and the Germination rate (rice (Diamant variety) [1]; 1·10^−7% solution) was 90.0%. For the same substance, the Germination energy (rice (Diamant variety) [1]; 1·10^−8% solution) was 85.7%, the Germination rate (rice (Diamant variety) [1]; 1·10^−8% solution) was 92.0% and the Germination energy (rice (Diamant variety) [1]; 1·10^−9% solution) was 87.7%. The Germination rate (rice (Diamant variety) [1]; 1·10^−9% solution) was 94.0%, the Germination energy (rice (Diamant variety) [1]; 1·10^−10% solution) was 84.7% and the Germination rate (rice (Diamant variety) [1]; 1·10^−10% solution) was 96.7%. It also gave a Germination energy (rice (Diamant variety) [1]; 1·10^−10% solution, listed as Cu) of 88.7%, a Germination energy (rice (Diamant variety) [1]; 1·10^−11% solution) of 85.7% and a Germination rate (rice (Diamant variety) [1]; 1·10^−11% solution) of 94.3%. It also gave a Germination energy (rice (Diamant variety) [1]; 1·10^−12% solution) of 82.0%, a Germination rate (rice (Diamant variety) [1]; 1·10^−12% solution) of 87.7% and a Germination energy (rice (Diamant variety) [1]; [4]) of 88.0%. For the same substance, the Germination rate (rice (Diamant variety) [1]; [4]) was 96.0%, the “optimum concentration for treating rice seeds before sowing” value (rice (Diamant variety) [2]; rice) was 1·10^−10% and the “Length, root” value (rice (Diamant variety) [2]; [5]) was 6.3 cm. For the same substance, the “Length, root, + % to control” value (rice (Diamant variety) [2]; [5]) was 31%, the “Length, sprout” value (rice (Diamant variety) [2]; [5]) was 3.3 cm and the “Length, sprout, + % to control” value (rice (Diamant variety) [2]; [5]) was 27%. For the same substance, the “Mass, dry, root” value (rice (Diamant variety) [2]; [5]) was 0.26 g/100 plantlings, the “Mass, dry, root, + % to control” value (rice (Diamant variety) [2]; [5]) was 24% and the “Mass, dry, sprout” value (rice (Diamant variety) [2]; [5]) was 0.27 g/100 plantlings. For the same substance, the “Mass, dry, sprout, + % to control” value (rice (Diamant variety) [2]; [5]) was 8%, the “Mass, wet, root” value (rice (Diamant variety) [2]; [5]) was 1.35 g/100 plantlings and the “Mass, wet, root, + % to control” value (rice (Diamant variety) [2]; [5]) was 38%. The “Mass, wet, sprout” value (rice (Diamant variety) [2]; [5]) was 2.25 g/100 plantlings, the “Mass, wet, sprout, + % to control” value (rice (Diamant variety) [2]; [5]) was 49% and the “Length, root” value (rice (Diamant variety) [2]; [6]) was 5.4 cm. For the same substance, the “Length, root, + % to control” value (rice (Diamant variety) [2]; [6]) was 6%, the “Length, sprout” value (rice (Diamant variety) [2]; [6]) was 2.6 cm and the “Length, sprout, + % to control” value (rice (Diamant variety) [2]; [6]) was 8%. For the same substance, the “Mass, dry, root” value (rice (Diamant variety) [2]; [6]) was 0.19 g/100 plantlings, the “Mass, dry, root, + % to control” value (rice (Diamant variety) [2]; [6]) was 12% and the “Mass, dry, sprout” value (rice (Diamant variety) [2]; [6]) was 0.26 g/100 plantlings. For the same substance, the “Mass, dry, sprout, + % to control” value (rice (Diamant variety) [2]; [6]) was 13%, the “Mass, wet, root” value (rice (Diamant variety) [2]; [6]) was 0.93 g/100 plantlings and the “Mass, wet, root, + % to control” value (rice (Diamant variety) [2]; [6]) was 13%. The “Mass, wet, sprout” value (rice (Diamant variety) [2]; [6]) was 1.47 g/100 plantlings, the “Mass, wet, sprout, + % to control” value (rice (Diamant variety) [2]; [6]) was 6.5% and the “Length, root” value (rice (Diamant variety) [2]; [7]) was 5.5 cm. For the same substance, the “Length, root, + % to control” value (rice (Diamant variety) [2]; [7]) was 8%, the “Length, sprout” value (rice (Diamant variety) [2]; [7]) was 2.7 cm and the “Length, sprout, + % to control” value (rice (Diamant variety) [2]; [7]) was 12.5%. For the same substance, the “Mass, dry, root” value (rice (Diamant variety) [2]; [7]) was 0.21 g/100 plantlings, the “Mass, dry, root, + % to control” value (rice (Diamant variety) [2]; [7]) was 23.5% and the “Mass, dry, sprout” value (rice (Diamant variety) [2]; [7]) was 0.29 g/100 plantlings. For the same substance, the “Mass, dry, sprout, + % to control” value (rice (Diamant variety) [2]; [7]) was 26%, the “Mass, wet, root” value (rice (Diamant variety) [2]; [7]) was 1.03 g/100 plantlings and the “Mass, wet, root, + % to control” value (rice (Diamant variety) [2]; [7]) was 26%. For the same substance, the “Mass, wet, sprout” value (rice (Diamant variety) [2]; [7]) was 1.61 g/100 plantlings, the “Mass, wet, sprout, + % to control” value (rice (Diamant variety) [2]; [7]) was 17% and the “Length, root” value (rice (Diamant variety) [2]; [8]) was 5.7 cm. For the same substance, the “Length, root, + % to control” value (rice (Diamant variety) [2]; [8]) was 12%, the “Length, sprout” value (rice (Diamant variety) [2]; [8]) was 2.8 cm and the “Length, sprout, + % to control” value (rice (Diamant variety) [2]; [8]) was 17%. The “Mass, dry, root” value (rice (Diamant variety) [2]; [8]) was 0.23 g/100 plantlings, the “Mass, dry, root, + % to control” value (rice (Diamant variety) [2]; [8]) was 35% and the “Mass, dry, sprout” value (rice (Diamant variety) [2]; [8]) was 0.31 g/100 plantlings. For the same substance, the “Mass, dry, sprout, + % to control” value (rice (Diamant variety) [2]; [8]) was 35%, the “Mass, wet, root” value (rice (Diamant variety) [2]; [8]) was 1.09 g/100 plantlings and the “Mass, wet, root, + % to control” value (rice (Diamant variety) [2]; [8]) was 33%. For the same substance, the “Mass, wet, sprout” value (rice (Diamant variety) [2]; [8]) was 1.74 g/100 plantlings, the “Mass, wet, sprout, + % to control” value (rice (Diamant variety) [2]; [8]) was 26% and the “Length, root” value (rice (Diamant variety) [2]; [9]) was 5.9 cm. For the same substance, the “Length, root, + % to control” value (rice (Diamant variety) [2]; [9]) was 16%, the “Length, sprout” value (rice (Diamant variety) [2]; [9]) was 2.8 cm and the “Length, sprout, + % to control” value (rice (Diamant variety) [2]; [9]) was 17%. For the same substance, the “Mass, dry, root” value (rice (Diamant variety) [2]; [9]) was 0.25 g/100 plantlings, the “Mass, dry, root, + % to control” value (rice (Diamant variety) [2]; [9]) was 47% and the “Mass, dry, sprout” value (rice (Diamant variety) [2]; [9]) was 0.33 g/100 plantlings. For the same substance, the “Mass, dry, sprout, + % to control” value (rice (Diamant variety) [2]; [9]) was 43%, the “Mass, wet, root” value (rice (Diamant variety) [2]; [9]) was 1.16 g/100 plantlings and the “Mass, wet, root, + % to control” value (rice (Diamant variety) [2]; [9]) was 41%. For the same substance, the “Mass, wet, sprout” value (rice (Diamant variety) [2]; [9]) was 1.92 g/100 plantlings, the “Mass, wet, sprout, + % to control” value (rice (Diamant variety) [2]; [9]) was 39% and the “Length, root” value (rice (Diamant variety) [2]; [10]) was 6.0 cm. For the same substance, the “Length, root, + % to control” value (rice (Diamant variety) [2]; [10]) was 18%, the “Length, sprout” value (rice (Diamant variety) [2]; [10]) was 2.9 cm and the “Length, sprout, + % to control” value (rice (Diamant variety) [2]; [10]) was 21%. For the same substance, the “Mass, dry, root” value (rice (Diamant variety) [2]; [10]) was 0.27 g/100 plantlings, the “Mass, dry, root, + % to control” value (rice (Diamant variety) [2]; [10]) was 59% and the “Mass, dry, sprout” value (rice (Diamant variety) [2]; [10]) was 0.36 g/100 plantlings. For the same substance, the “Mass, dry, sprout, + % to control” value (rice (Diamant variety) [2]; [10]) was 56.5%, the “Mass, wet, root” value (rice (Diamant variety) [2]; [10]) was 1.22 g/100 plantlings and the “Mass, wet, root, + % to control” value (rice (Diamant variety) [2]; [10]) was 49%. The “Mass, wet, sprout” value (rice (Diamant variety) [2]; [10]) was 2.11 g/100 plantlings, the “Mass, wet, sprout, + % to control” value (rice (Diamant variety) [2]; [10]) was 53% and the “Length, root” value (rice (Diamant variety) [2]; [11]) was 5.9 cm. The “Length, root, + % to control” value (rice (Diamant variety) [2]; [11]) was 16%, the “Length, sprout” value (rice (Diamant variety) [2]; [11]) was 2.7 cm and the “Length, sprout, + % to control” value (rice (Diamant variety) [2]; [11]) was 12.5%. For the same substance, the “Mass, dry, root” value (rice (Diamant variety) [2]; [11]) was 0.24 g/100 plantlings, the “Mass, dry, root, + % to control” value (rice (Diamant variety) [2]; [11]) was 41% and the “Mass, dry, sprout” value (rice (Diamant variety) [2]; [11]) was 0.32 g/100 plantlings. The “Mass, dry, sprout, + % to control” value (rice (Diamant variety) [2]; [11]) was 39%, the “Mass, wet, root” value (rice (Diamant variety) [2]; [11]) was 1.12 g/100 plantlings and the “Mass, wet, root, + % to control” value (rice (Diamant variety) [2]; [11]) was 36.5%. The “Mass, wet, sprout” value (rice (Diamant variety) [2]; [11]) was 1.87 g/100 plantlings, the “Mass, wet, sprout, + % to control” value (rice (Diamant variety) [2]; [11]) was 35.5% and the “Length, root” value (rice (Diamant variety) [2]; [12]) was 5.6 cm. The “Length, root, + % to control” value (rice (Diamant variety) [2]; [12]) was 10%, the “Length, sprout” value (rice (Diamant variety) [2]; [12]) was 2.6 cm and the “Length, sprout, + % to control” value (rice (Diamant variety) [2]; [12]) was 8%. For the same substance, the “Mass, dry, root” value (rice (Diamant variety) [2]; [12]) was 0.20 g/100 plantlings, the “Mass, dry, root, + % to control” value (rice (Diamant variety) [2]; [12]) was 18% and the “Mass, dry, sprout” value (rice (Diamant variety) [2]; [12]) was 0.27 g/100 plantlings. The “Mass, dry, sprout, + % to control” value (rice (Diamant variety) [2]; [12]) was 17%, the “Mass, wet, root” value (rice (Diamant variety) [2]; [12]) was 1.01 g/100 plantlings and the “Mass, wet, root, + % to control” value (rice (Diamant variety) [2]; [12]) was 23%. The “Mass, wet, sprout” value (rice (Diamant variety) [2]; [12]) was 1.75 g/100 plantlings, the “Mass, wet, sprout, + % to control” value (rice (Diamant variety) [2]; [12]) was 27% and the “dry mass of the roots increased by” value (rice (Diamant variety) [2]; [13]) was 59%. For the same substance, the “dry mass of the sprouts increased by” value (rice (Diamant variety) [2]; [13]) was 56.5%, the “length of the root increased by” value (rice (Diamant variety) [2]; [13]) was 18% and the “length of the sprout increased by” value (rice (Diamant variety) [2]; [13]) was 21%. The “wet mass of the roots increased by” value (rice (Diamant variety) [2]; [13]) was 49% and the “wet mass of the sprouts increased by” value (rice (Diamant variety) [2]; [13]) was 53%.
